Several values for one entry are separate records, joined by “and”; a condition that tells them apart may be missing. Equal values may be shown once. Read-outs that look alike come from different tables or passages of the source.
Assays:
[1] = system: IRF7 5'UTR firefly luciferase reporter in HEK293T cells; details: for Reference vs IRF7 (Final data, Fig. 1E): 1/Result, relative to DMSO; for LONG (summary - All), normalized to DMSO / SHORT (summary - All), normalized to DMSO: individual replicates, outliers excluded, DMSO = 1; for SHORT (summary - All), normalized to DMSO: Short reporter; for average ( long vs short ratio): summary - All;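 as to all read-outs here: luciferase signal corrected by a co-transfected GFP reporter for transfection efficiency, read after overnight compound exposure, with Long and Short reporters differing in 5'UTR length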
eIF1A = target: T1, eIF1A (Homo sapiens, UniProt P47813); assay type: binding; details: for fluorescence ratio, eIF1A: background-corrected, relative to DMSO or lowest 1Ai concentration, replicate columns
T1 construct: His-bdSUMO (cleaved yes); made in house; host or cells: E. coli BL-21
T1 sequence (P47813 whole entry): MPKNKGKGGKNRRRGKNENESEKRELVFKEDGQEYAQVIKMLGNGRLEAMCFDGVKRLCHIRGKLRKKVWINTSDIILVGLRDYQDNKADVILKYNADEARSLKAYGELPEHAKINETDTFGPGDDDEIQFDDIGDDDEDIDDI

[2] = system: cap-proximal AUG GFP reporter in HEK293T cells; assay type: cell-based; details: GFP WB densitometry; 20 µM overnight; dmso 0.965946;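 also: ratio of upstream to downstream AUG initiation products on GFP Western blot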
[3] = system: CUG/GUG vs AUG start codon luciferase reporters in HEK293T cells; assay: Near-cognate AUG starting codon fidelity reporter assay (GUG, CUG vs AUG); assay type: cell-based; details: for CUG vs AUG (%): CUG start codon reporter relative to AUG reporter (AUG = 100); for CUG vs AUG (%) / GUG vs AUG (%): single-experiment calculation; for GUG vs AUG (%): GUG start codon reporter relative to AUG reporter (AUG = 100); for average CUG and GUG / average CUG and GUG relative to DMSO / CUG Average / GUG Average: NUG experiment; for CUG Average: CUG vs AUG reporter; for GUG Average: GUG vs AUG reporter; for NUG (Final data, Fig. 1E): average CUG and GUG relative to DMSO, 20 µM overnight; for GUG vs AUG data (%): individual repeat; for GUG vs AUG (%) Average: summary average of repeats, DMSO control average […]
RPS10 = target: T2, RPS10 (Homo sapiens, UniProt P46783); assay type: binding
T2 construct: made in house; host or cells: E. coli BL-21

[4] = eIF1A, from the titration data, read-out: IC50 (eIF1A titration block)
[5] = summary table, fluorescence binding assay, read-out: IC50 concentration (µM), WT eIF1A
[6] = raw data calculation of one experiment, GFP normalized, AUG set to 100, compound marked (20)
[7] = read-out: IC50 (line under RPS10 binding data)
[8] = summary table, fluorescence binding assay, read-out: IC50 concentration (µM), RPS10
[9] = compound at 20uM (summary head)

## COc1ccc(C=C2CSc3ccc(Cl)cc3C2=O)cc1O [1Ai-5175]
[1]; 20 µM
  Reference vs IRF7 (Final data, Fig. 1E): 2.369
[1]; Long reporter, 5 µM
  LONG (summary - All), normalized to DMSO: 0.41 and 0.69 and 0.67
[1]; 5 µM
  SHORT (summary - All), normalized to DMSO: 1.04 and 2.35 and 0.82
  average ( long vs short ratio): 0.422
[1]; data section, Long reporter, GFP-corrected, 5 µM, per experiment
  Long: Normalized to average DMSO: 0.4067 and 0.6939 and 0.6743
eIF1A; 1Ai conc. 0.25 uM
  fluorescence ratio, eIF1A: 0.9293 and 0.8251
eIF1A; 1Ai conc. 0.5 uM
  fluorescence ratio, eIF1A: 0.9438 and 0.8466
eIF1A; 1Ai conc. 1 uM
  fluorescence ratio, eIF1A: 0.9705 and 0.8212
eIF1A; 1Ai conc. 2 uM
  fluorescence ratio, eIF1A: 0.5643 and 0.7297
eIF1A; 1Ai conc. 4 uM
  fluorescence ratio, eIF1A: 0.4919 and 0.7019
eIF1A; 1Ai conc. 8 uM
  fluorescence ratio, eIF1A: 0.4802 and 0.6176
eIF1A; 1Ai conc. 16 uM
  fluorescence ratio, eIF1A: 0.3895 and 0.4949
eIF1A; 1Ai conc. 32 uM
  fluorescence ratio, eIF1A: 0.3105 and 0.4413
eIF1A; 1Ai conc. 64 uM
  fluorescence ratio, eIF1A: 0.2231 and 0.3132
eIF1A; 1Ai conc. 256 uM
  fluorescence ratio, eIF1A: 0.1792 and 0.2884
eIF1A; [4]
  IC50: 6.02 µM
eIF1A; [5]
  IC50: 6 µM
[2]
  US/DS ratio, average: 1.243
[3]; compound at 5uM (summary head)
  CUG vs AUG (%): 10.1681% and 8.512%
  GUG vs AUG (%): 2.289% and 2.982%
[3]
  average CUG and GUG: 5.826
  average CUG and GUG relative to DMSO: 1.2918
  CUG Average: 9.011
  GUG Average: 2.642
  NUG (Final data, Fig. 1E): 1.292
[3]; compound at 5uM
  GUG vs AUG data (%): 2.76% and 3.14% and 2.85% and 1.82%
  GUG vs AUG (%) Average: 2.64%
[3]; [6]
  calculation: CUG (AUG = 100): 4.394
  calculation: GUG (AUG = 100): 1.456
RPS10; 1Ai conc. 0.25 uM
  RPS10 fluorescence ratio to control: 0.6015
RPS10; 1Ai conc. 0.5 uM
  RPS10 fluorescence ratio to control: 0.7077
RPS10; 1Ai conc. 1 uM
  RPS10 fluorescence ratio to control: 1.288
RPS10; 1Ai conc. 2 uM
  RPS10 fluorescence ratio to control: 1.156
RPS10; 1Ai conc. 4 uM
  RPS10 fluorescence ratio to control: 1.025
RPS10; 1Ai conc. 8 uM
  RPS10 fluorescence ratio to control: 0.4718
RPS10; 1Ai conc. 16 uM
  RPS10 fluorescence ratio to control: 0.1497
RPS10; 1Ai conc. 32 uM
  RPS10 fluorescence ratio to control: 0.1533
RPS10; 1Ai conc. 64 uM
  RPS10 fluorescence ratio to control: 0.2655
RPS10; 1Ai conc. 256 uM
  RPS10 fluorescence ratio to control: 0.2335
RPS10; [7]
  IC50: 6.7 µM
RPS10; read-out: RPS10 IC50
  IC50: 6.7 µM
RPS10; [8]
  IC50: 6.7 µM

## Cc1ccc(C(=O)c2cc(O)c(O)c([N+](=O)[O-])c2)cc1 [1Ai-5576]
[1]; 20 µM
  Reference vs IRF7 (Final data, Fig. 1E): 1.896
  SHORT (summary - All), normalized to DMSO: 0.23 and 0.53 and 0.25 and 0.22
  average ( long vs short ratio): 0.527
[1]; Long reporter, 20 µM
  LONG (summary - All), normalized to DMSO: 0.11 and 0.20 and 0.17
[1]; compound at 20 µM, left data block (Long), source data of Fig 1C
  Long 5'UTR reporter luciferase activity, normalized to DMSO (=1), single replicates: 0.1126 and 0.2 and 0.1668 and 0.166
eIF1A; 1Ai conc. 0.25 uM
  fluorescence ratio, eIF1A: 0.7537 and 0.6505
eIF1A; 1Ai conc. 0.5 uM
  fluorescence ratio, eIF1A: 0.6672 and 0.6249
eIF1A; 1Ai conc. 1 uM
  fluorescence ratio, eIF1A: 0.6232 and 0.5058
eIF1A; 1Ai conc. 2 uM
  fluorescence ratio, eIF1A: 0.6427 and 0.4189
eIF1A; 1Ai conc. 4 uM
  fluorescence ratio, eIF1A: 0.6101 and 0.3891
eIF1A; 1Ai conc. 8 uM
  fluorescence ratio, eIF1A: 0.5237 and 0.3506
eIF1A; 1Ai conc. 16 uM
  fluorescence ratio, eIF1A: 0.4763 and 0.3127
eIF1A; 1Ai conc. 32 uM
  fluorescence ratio, eIF1A: 0.3344 and 0.3594
eIF1A; 1Ai conc. 64 uM
  fluorescence ratio, eIF1A: 0.3785 and 0.2952
eIF1A; 1Ai conc. 256 uM
  fluorescence ratio, eIF1A: 0.2822 and 0.2602
eIF1A; [4]
  IC50: 0.926 µM
eIF1A; [5]
  IC50: 0.9 µM
[2]
  US/DS ratio, average: 0.8188
[3]; [9]
  CUG vs AUG (%): 5.985%
  GUG vs AUG (%): 2.005%
[3]
  average CUG and GUG: 6.465
  average CUG and GUG relative to DMSO: 1.433
  CUG Average: 9.471
  GUG Average: 3.46
  NUG (Final data, Fig. 1E): 1.433
[3]; compound at 20uM
  GUG vs AUG data (%): 2.91% and 4.78% and 2.69%
  GUG vs AUG (%) Average: 3.46%
RPS10; 1Ai conc. 0.25 uM
  RPS10 fluorescence ratio to control: 1.2176
RPS10; 1Ai conc. 0.5 uM
  RPS10 fluorescence ratio to control: 1.045
RPS10; 1Ai conc. 1 uM
  RPS10 fluorescence ratio to control: 1.349
RPS10; 1Ai conc. 2 uM
  RPS10 fluorescence ratio to control: 1.319
RPS10; 1Ai conc. 4 uM
  RPS10 fluorescence ratio to control: 1.348
RPS10; 1Ai conc. 8 uM
  RPS10 fluorescence ratio to control: 0.4488
RPS10; 1Ai conc. 16 uM
  RPS10 fluorescence ratio to control: 0.3698
RPS10; 1Ai conc. 32 uM
  RPS10 fluorescence ratio to control: 0.4065
RPS10; 1Ai conc. 64 uM
  RPS10 fluorescence ratio to control: 0.1627
RPS10; 1Ai conc. 256 uM
  RPS10 fluorescence ratio to control: 0.3279
RPS10; [7]
  IC50: 7.4 µM
RPS10; read-out: RPS10 IC50
  IC50: 7.4 µM
RPS10; [8]
  IC50: 7.4 µM

## CN(C)CC1CCn2cc(c3ccccc32)C2=C(C(=O)NC2=O)c2cn(c3ccccc23)CCO1 (stereo not shown) [1Ai-5662]
[1]; 20 µM
  Reference vs IRF7 (Final data, Fig. 1E): 0.936
[1]; Long reporter, 10 µM
  LONG (summary - All), normalized to DMSO: 1.11 and 0.84 and 0.46 and 0.50
[1]; 10 µM
  SHORT (summary - All), normalized to DMSO: 0.67 and 0.80 and 0.62 and 0.63
  average ( long vs short ratio): 1.068
eIF1A; 1Ai conc. 0.25 uM
  fluorescence ratio, eIF1A: 0.7967 and 0.9449
eIF1A; 1Ai conc. 0.5 uM, listed as 5662
  fluorescence ratio, eIF1A: 0.8569 and 0.971
eIF1A; 1Ai conc. 1 uM
  fluorescence ratio, eIF1A: 0.7317 and 0.9217
eIF1A; 1Ai conc. 2 uM
  fluorescence ratio, eIF1A: 1.065 and 0.7855
eIF1A; 1Ai conc. 4 uM
  fluorescence ratio, eIF1A: 1.002 and 0.7942
eIF1A; 1Ai conc. 8 uM
  fluorescence ratio, eIF1A: 0.774 and 0.658
eIF1A; 1Ai conc. 16 uM
  fluorescence ratio, eIF1A: 0.5642 and 0.6667
eIF1A; 1Ai conc. 32 uM
  fluorescence ratio, eIF1A: 0.2341 and 0.4609
eIF1A; 1Ai conc. 64 uM
  fluorescence ratio, eIF1A: 0.1593 and 0.2928
eIF1A; 1Ai conc. 256 uM
  fluorescence ratio, eIF1A: 0.1171 and 0.07826
eIF1A; [4]
  IC50: 20.9 µM
eIF1A; [5]
  IC50: 20.9 µM
[2]
  US/DS ratio, average: 3.065
[3]
  average CUG and GUG: 5.24
  average CUG and GUG relative to DMSO: 1.162
  CUG Average: 7.645
  GUG Average: 2.835
  NUG (Final data, Fig. 1E): 1.162
[3]; compound at 10uM
  GUG vs AUG data (%): 1.99% and 4.83% and 1.69%
  GUG vs AUG (%) Average: 2.83%
RPS10; 1Ai conc. 0.25 uM
  RPS10 fluorescence ratio to control: 0.8917
RPS10; 1Ai conc. 0.5 uM
  RPS10 fluorescence ratio to control: 1.048
RPS10; 1Ai conc. 1 uM
  RPS10 fluorescence ratio to control: 0.937
RPS10; 1Ai conc. 2 uM
  RPS10 fluorescence ratio to control: 0.8646
RPS10; 1Ai conc. 4 uM
  RPS10 fluorescence ratio to control: 0.7525
RPS10; 1Ai conc. 8 uM
  RPS10 fluorescence ratio to control: 0.6979
RPS10; 1Ai conc. 16 uM
  RPS10 fluorescence ratio to control: 0.6531
RPS10; 1Ai conc. 32 uM
  RPS10 fluorescence ratio to control: 0.6137
RPS10; 1Ai conc. 64 uM
  RPS10 fluorescence ratio to control: 0.4569
RPS10; 1Ai conc. 256 uM
  RPS10 fluorescence ratio to control: 0.295
RPS10; fluorescence binding
  RPS10 IC50: No binding
RPS10; summary table, fluorescence binding assay
  IC50 concentration (µM), RPS10: No binding

Reference: PMC12216609, “Inhibitors of eIF1A-ribosome interaction unveil uORF-dependent regulation of translation initiation and antitumor and antiviral effects” (The EMBO Journal, 2025)
